# Assay results as given in the supplement of paper PMC10307832.
# Columns and labels:
# Experiment in all cases: relative viability (nuclei count vs DMSO), 5 days (fraction); higher = more cells survive
# [1] = compound: COC1=CC(c2cc3ccccc3[nH]2)=N/C1=C\c1[nH]c(C)cc1C [Obatoclax] + CC(=O)c1c(C)c2cnc(Nc3ccc(N4CCNCC4)cn3)nc2n(C2CCCC2)c1=O [Palbociclib] (partner 0.5 µM)
# In short: (§1)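 Lung cancer cell lines in 1536-well plates got either a single drug or a fixed anchor-drug dose together with five library-drug doses (not always all listed) in √10 steps, by pin tool, on the day after seeding. Nuclei were counted after 5 days, and relative viability is the treated-to-vehicle ratio of nuclei counts. Values are medians of duplicate plates.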
# [2] = compound: CC(C)C[C@H](NC(=O)[C@H](Cc1ccccc1)NC(=O)c1cnccn1)B(O)O [Bortezomib] + CC(=O)c1c(C)c2cnc(Nc3ccc(N4CCNCC4)cn3)nc2n(C2CCCC2)c1=O [Palbociclib] (partner 0.5 µM)
# In short: as §1
# [3] = compound: CC1=CC(=NN1)NC2=CC(=NC(=N2)/C=C/C3=CC=CC=C3)N4CCN(CC4)C + C[C@]1(O)C[C@@H](c2nc(-c3ccc4ccc(-c5ccccc5)nc4c3)c3c(N)nccn32)C1 [Linsitinib] (partner 1 µM)
# In short: as §1
# [4] = compound: CC1=CC(=NN1)NC2=CC(=NC(=N2)/C=C/C3=CC=CC=C3)N4CCN(CC4)C + C[C@@H](Oc1cc(-c2cnn(C3CCNCC3)c2)cnc1N)c1c(Cl)ccc(F)c1Cl [Crizotinib] (partner 1 µM)
# In short: as §1
Cell Line,relative viability ([1]; first compound 0.01 µM),relative viability ([1]; first compound 0.03162 µM),relative viability ([1]; first compound 0.1 µM),relative viability ([1]; first compound 0.3162 µM),relative viability ([1]; first compound 1 µM),relative viability ([2]; first compound 0.0002 µM),relative viability ([2]; first compound 0.000632 µM),relative viability ([2]; first compound 0.002 µM),relative viability ([2]; first compound 0.006325 µM),relative viability ([2]; first compound 0.02 µM),relative viability ([3]; first compound 0.08 µM),relative viability ([3]; first compound 0.253 µM),relative viability ([3]; first compound 0.8 µM),relative viability ([3]; first compound 2.53 µM),relative viability ([3]; first compound 8 µM),relative viability ([4]; first compound 0.08 µM),relative viability ([4]; first compound 0.253 µM),relative viability ([4]; first compound 0.8 µM),relative viability ([4]; first compound 2.53 µM),relative viability ([4]; first compound 8 µM)
NCI-H1666,0.593,0.692,0.659,0.638,0.592,0.62,0.699,0.608,0.569,0.472,0.83,0.949,0.747,0.77,0.288,0.969,0.863,0.822,0.453,0.187
NCI-H1734,0.3,0.338,0.337,0.32,0.303,0.38,0.342,0.266,0.108,0.0922,0.907,0.867,0.917,0.478,0.196,0.632,0.722,0.522,0.331,0.123
NCI-H1755,0.427,0.447,0.458,0.497,0.426,0.426,0.438,0.452,0.263,0.248,1.05,1.04,0.993,0.799,0.267,0.863,0.929,0.78,0.593,0.105
NCI-H1792,0.626,0.609,,0.625,0.705,0.628,0.593,0.494,0.637,0.375,0.58,0.56,0.513,0.316,0.112,0.942,0.982,0.966,0.815,0.165
NCI-H1915,0.527,0.557,0.521,0.486,0.522,0.476,0.519,0.54,0.118,0.0404,1.1,1.1,1.03,0.815,0.569,0.868,0.92,0.869,0.593,0.248
NCI-H1944,0.344,0.313,0.34,0.318,0.319,0.315,0.309,0.336,0.21,0.15,1.21,1.4,1.23,0.86,0.348,1.04,1.24,1.11,0.62,0.275
NCI-H1975,0.557,0.55,0.285,0.542,0.177,0.663,0.517,0.138,0.1,0.106,0.904,0.951,0.722,0.203,0.127,0.91,0.958,0.548,0.186,0.147
NCI-H1993,0.703,0.611,0.692,0.693,0.686,0.569,0.737,0.666,0.369,0.359,0.842,,0.617,0.594,0.55,0.883,,0.739,0.551,0.526
NCI-H2009,0.215,0.224,0.194,0.188,0.123,0.241,0.205,0.176,0.0661,0.0466,1.08,1.16,1.21,1.05,0.155,1.06,0.94,1.02,0.534,0.22
NCI-H2023,0.414,0.361,0.358,0.213,0.218,0.303,0.345,0.332,0.0803,0.0773,0.63,0.725,0.581,0.382,0.0796,0.631,0.611,0.343,0.0794,0.0532
NCI-H2085,0.472,0.45,0.462,0.482,0.423,0.464,0.475,0.458,0.253,0.232,0.796,0.95,0.931,0.502,0.289,0.859,0.831,0.753,0.343,0.266
NCI-H2087,0.212,0.216,0.183,0.231,0.116,0.218,0.246,0.156,0.0525,0.036,0.982,0.909,0.965,0.723,0.203,0.968,0.58,0.769,0.567,0.179
NCI-H2126,0.34,0.34,0.376,0.356,0.337,0.365,0.349,0.369,0.328,0.208,0.647,0.72,0.716,0.621,0.421,1.01,1,0.994,0.916,0.529
NCI-H2228,0.609,0.792,0.573,0.525,0.401,0.587,0.843,0.72,0.0946,0.0943,0.776,0.709,0.506,0.154,0.0965,0.586,0.45,0.33,0.0992,0.0441
NCI-H2347,0.388,0.406,0.393,0.489,0.413,0.401,0.497,0.406,0.292,0.231,0.844,1.05,0.99,0.93,0.614,0.855,0.784,0.545,0.573,0.262
NCI-H2405,0.578,0.545,,0.541,0.434,0.503,0.547,0.349,0.143,0.141,0.951,0.674,1.06,0.499,0.164,0.868,0.818,0.803,0.694,0.202
